From article PMC7927863 (Antimicrobial Agents and Chemotherapy, 2020)
Counter-ions that a name gives are not always drawn. Like-named read-outs stand apart in the source and are kept apart here.

What was measured:
SARS-CoV-2 [1] = format: cell-based; settings: for virus-yield decrease, CoV-2: nontoxic single dose, 48 h; for antiviral effect on CoV-2 replication: up to 20 μM
HCoV-OC43 = assay: microbe, parasite or virus in culture; format: cell-based; settings: for EC50: Betacoronavirus 1, OC43, Huh-7, read-out: Antiviral activity against HCoV-OC43 Huh7 cells EC50; for antiviral activity against HCoV-OC43: up to 20 μM
SARS-CoV-2 [2] = settings: read-out: reported EC50; Vero E6 cells; cited from earlier work
COVID-19 = settings: 1,063 hospitalized patients; placebo 15 days; P < 0.0001; cited from earlier work
in vitro [3] = settings: African green monkey
CoV-2 and HCoV-OC43 = assay: sofosbuvir antiviral evaluation in additional cells; format: cell-based
in vitro [4] = settings: human
in vitro [5] = settings: human; remark: listed apart in the source
in vitro [6] = settings: human; remark: listed apart in the source

Structure (SMILES)	EC50 (HCoV-OC43) [µM]	CC50 (in vitro [3]) [µM]	antiviral effect on CoV-2 replication (SARS-CoV-2 [1]; Vero cells)	CC50 (in vitro [4]) [µM]	CC50 (in vitro [5]) [µM]	CC50 (in vitro [6]) [µM]	also measured
CCC(CC)COC(=O)[C@H](C)N[P@](=O)(OC[C@H]1O[C@@](C#N)(c2ccc3c(N)ncnn23)[C@H](O)[C@@H]1O)Oc1ccccc1 [Compound 10, remdesivir]	0.04 ± 0.1	> 100	–	–	–	–	selectivity index (SI) for SARS-CoV-2 (SARS-CoV-2 [1]; CC50/EC50, Vero cells): > 100; virus-yield decrease, CoV-2 (SARS-CoV-2 [1]; Vero cells): > 90%; selectivity index (SI) for HCoV-OC43 (HCoV-OC43; CC50/EC50, Huh-7 cells): 52; EC50 (SARS-CoV-2 [2]): 1.85 µM; time to recovery (COVID-19): 11 days
CC(C)OC(=O)OCOP(=O)(CO[C@H](C)Cn1cnc2c(N)ncnc21)OCOC(=O)OC(C)C [Compound 16, tenofovir disoproxil fumarate]	> 20	> 100	did not show any activity	–	–	–	antiviral activity against HCoV-OC43 (HCoV-OC43; Huh-7 cells): did not show any activity
C[C@@]1(O)[C@H](O)[C@@H](CO)O[C@H]1n1ccc(N)nc1=O [Compound 1, 2′-C-methylcytidine]	10 ± 0.7	> 100	–	–	–	–	selectivity index (SI) for SARS-CoV-2 (SARS-CoV-2 [1]; CC50/EC50, Vero cells): > 10; toxicity in Vero cells (Vero CCL-81 cells; up to 100 μM): no toxicity
Nc1ccn([C@@H]2O[C@@](CO)(CCl)[C@@H](O)[C@H]2F)c(=O)n1 [Compound 5, ALS-8112]	> 20	> 100	did not have a marked effect	–	–	–	–
CC(C)OC(=O)[C@H](C)N[P@](=O)(OC[C@H]1O[C@@H](n2ccc(=O)[nH]c2=O)[C@](C)(F)[C@@H]1O)Oc1ccccc1 [Compound 4, sofosbuvir]	> 20	> 100	no antiviral effect	> 100	> 100	> 100	EC50 (CoV-2 and HCoV-OC43; Betacoronavirus 1, OC43, Calu-3, in Homo sapiens, read-out: EC50 in Calu3 cells): > 20 µM; EC50 (CoV-2 and HCoV-OC43; Betacoronavirus 1, OC43, RD, in Homo sapiens, read-out: EC50 in RD cells): > 20 µM; EC50 (CoV-2 and HCoV-OC43; Caco-2, read-out: EC50 in Caco-2 cells): > 20 µM
NC(=O)c1nc(F)c[nH]c1=O [Compound 8, favipiravir]	6.8	> 100	–	> 100	> 100	> 100	–
CC(C)OC(=O)[C@H](C)N[P@](=O)(CO[C@H](C)Cn1cnc2c(N)ncnc21)Oc1ccccc1 [Compound 15, tenofovir alafenamide]	> 20	36.4	–	–	–	–	–
N#C[C@@]1(c2ccc3c(N)ncnn23)O[C@H](CO)[C@@H](O)[C@H]1O [Compound 11, GS-441524]	> 10	> 100	–	> 100	> 100	> 100	selectivity index (SI) for SARS-CoV-2 (SARS-CoV-2 [1]; CC50/EC50, Vero cells): 12; virus-yield decrease, CoV-2 (SARS-CoV-2 [1]; Vero cells): > 90%; EC50 (SARS-CoV-2 [2]): 0.47 µM
C=C1[C@H](CO)[C@@H](O)C[C@@H]1n1cnc2c(=O)[nH]c(N)nc21 [Compound 9, entecavir]	> 20	> 100	–	–	–	–	–
Nc1nc(=O)n([C@@H]2CS[C@H](CO)O2)cc1F [Compound 14, emtricitabine]	> 20	> 100	–	> 100	> 100	> 100	–
NC(=O)c1ncn([C@@H]2O[C@H](CO)[C@@H](O)[C@H]2O)n1 [Compound 12, ribavirin]	20.6	> 100	did not exhibit a marked inhibitory effect	–	–	–	antiviral activity against HCoV-OC43 (HCoV-OC43; Huh-7 cells): did not exhibit a marked inhibitory effect
Nc1ccn([C@@H]2CS[C@H](CO)O2)c(=O)n1 [Compound 13, lamivudine]	> 20	> 100	did not show any activity	> 100	> 100	> 100	antiviral activity against HCoV-OC43 (HCoV-OC43; Huh-7 cells): did not show any activity
C[C@@]1(O)[C@H](O)[C@@H](CO)O[C@H]1n1cc(F)c2c(N)ncnc21 [Compound 2, 7-deaza-7-fluoro-2′-C-methyladenosine]	6.7 ± 1.1	> 100	–	–	–	–	selectivity index (SI) for SARS-CoV-2 (SARS-CoV-2 [1]): > 10; toxicity in Vero cells (Vero CCL-81 cells): no toxicity
